Here are results for three molecules from patent US10738028B2, “Spiro three-membered ring, spiro five-membered ring peptide deformylase inhibitor and use thereof in antibacteria and anti-tumor” (priority 2016, dated 2020).

The subject of data set [1] is methemoglobin in blood samples of three healthy volunteers. The experiment in a line: Toxicity on methemoglobin in vitro (whole blood with S9 and NADPH, absorbance at 630 nm). The data set is classed as cell-based, human. The note with it: for MetHb % (n = 3): 500 μM compound, whole blood + S9 + NADPH, 5 hours at 37° C.; for probability of methemoglobin formation in blood compared with the control drugs LBM415 and GSK1322322: toxicity test in vitro, in words. As to the method: Because PDF inhibitors such as LBM415 and GSK1322322 can produce active species such as aromatic hydroxylamine and aromatic hydrazines in metabolic process, and cause human methemoglobinemia. To this end, continuous wavelength method was adopted in this invention to scan the absorption spectrum of blood samples in the wavelength range of 500 to 700 nm in the ultraviolet-visible spectrophotometer, and the contents of methemoglobin in blood samples of three healthy volunteers were calculated, after being effected by the synthesized compounds.
Experimental materials: Nicotinamide adenine dinucleotide phosphate (NADPH) reduction system: glucose-6-disodium phosphate, nicotinamide adenine dinucleoside phosphate and glucose-6-phosphate dehydrogenase (purchased from Shanghai yuanye Bio-Technology Co., Ltd) were added to 1 mL of phosphate buffer solution (PBS, pH 7.4), and the mixture was shaked in a shaker type water bath at 37° C. for 10 min, and then cooled to 0° C. Mixed human hepatocytes fraction S9 was purchased from Xenotech (20 mg S9 protein/1 mL suspension medium). Compounds were prepared to stock solution at a concentration of 50 mM, which was stored at −20° C. for use. Dapsone was used as positive control experimental reagent, which was purchased from Sigma Aldrich. 1% w/v triton X-100 was self-prepared. Blood samples were collected using Vacutainer tubes containing EDTA anticoagulants (BD, Franklin Lakes, USA), which were sampled from three healthy volunteers and used immediately after sampling.
Preparation of incubation system for blood samples and drugs: 250 μL of incubation system was consist of 220 μL of whole blood, 25 μL of S9 (final concentration: 2 mg S9 protein/mL incubation solution), 2.5 μL of NADPH form system (final concentration: 10 mM G-6-P, 1 mM NADP, 7.5 Units/mL) and 2.5 μL of stock solution of a compound (final concentration 500 μM). […] of incubation system was placed in an Eppendorf tube and incubated for 5 hours at 37° C. in water bath.
Determination of the content of methemoglobin: 60 μL of an incubated sample was taken and lysed with 3.0 mL of 1% Triton X-100. The content of methemoglobin (MetHb) was measured by an ultraviolet-visible spectrophotometer, with the Triton X-100 solution used as blank control. A sample was placed in a cuvette, 1 minute later, the spectrums of the sample in the wavelength range from 500 nm to 700 nm were recorded. The sample was added with 2 mg of potassium ferricyanide, and was allowed to stay stationary for 2 minutes for completely oxidization of ferrous iron in the sample, and standard spectrum of methemoglobin with saturated potassium ferricyanide. The percentage of methemoglobin formation (MetHb %) was obtained by the ratio of absorbance at 630 nm. MetHb %=(A′−AB′)/AM′, wherein, A′ was the total absorbance of the sample at 630 nm, AB′ was the base absorbance of the reduced blood in the sample at 630 nm, and AM′ was the absorbance of oxidized blood with saturated potassium ferricyanide at 630 nm.

Data set [2] has as its system methicillin-resistant Staphylococcus epidermidis (MRSE). The experiment in a line: MIC, two-fold agar dilution (CLSI), clinical isolates. The data set is classed as cell-based. Put shortly:
(§1)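 Test samples were assayed by the CLSI-recommended two-fold agar dilution method, and the minimum inhibitory concentration against each tested strain was determined.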
(In general: In agar dilution the substance is mixed into plates at graded concentrations.)

Data set [3] deals with Enterococcus faecalis (EFA). The data set is described as above. The class given is cell-based. Put shortly: as §1
The subject of data set [4] is Escherichia coli (including ESBLs, non-ESBLs). Described as above. The data set is classed as cell-based. Put shortly:
as §1

Data set [5] concerns methicillin-resistant Staphylococcus aureus (MRSA). Described as above. The data set is classed as cell-based. The gist of the method: as §1
In data set [6] the test system is methicillin-sensitive Staphylococcus epidermidis (MSSE). The description is as above. The data set is classed as cell-based. The gist of the method:
as §1

For data set [7], the system named is methicillin-sensitive Staphylococcus aureus (MSSA). The description is as above. The data set is classed as cell-based. The gist of the method:
as §1

In data set [8] the test system is HCT-116 colorectal cancer cell line. The experiment in a line: CCK-8 proliferation inhibition. The class given is cell-based. The settings on record: Homo sapiens, HCT-116, 72 h, read-out: HCT116 inhibition rate/%. Put shortly: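 Cells seeded at 2000 cells/well, cultured overnight at 37 °C, 5% CO2, then exposed to compound (DMSO; control 1‰ DMSO) for 72 h in McCoy's 5A with 10% newborn bovine serum. Viability read with 1:10 diluted CCK-8.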

The mark [9] stands for this setting: strain printed MRSA 14-1 (second line of that name, r23, before MRSE 14-2).

≈ marks a conversion by molar mass, not a printed value. Where two headings read alike, the source gives them in different places.

Take `CCCC[C@H](CN(O)C=O)C(=O)N1CC2(CC2)C[C@H]1C(=O)Nc1ccc(F)c[n+]1[O-]` [Example 2]: the “MetHb % (n = 3)” value in data set [1] turned out to be 3.32 ± 0.05%. The “probability of methemoglobin formation in blood compared with the control drugs LBM415 and GSK1322322” value in data set [1] is reported as “lower probability of methemoglobin formation in blood”. Moreover, the MIC (anti-bacterial activity) in data set [2] (strain MRSE 14-2) was determined as 0.06 µg/mL (≈ 0.142 µM); in data set [2] (strain MRSE 14-3), 0.06 µg/mL (≈ 0.142 µM); in data set [2] (strain MRSE 14-4), 0.125 µg/mL (≈ 0.296 µM); in data set [3] (strain EFA 14-1) it was 0.25 µg/mL (≈ 0.592 µM); in data set [3] (strain EFA 14-2), 0.5 µg/mL (≈ 1.18 µM); in data set [3] (strain EFA 14-3), 0.5 µg/mL (≈ 1.18 µM). Further, the MIC (anti-bacterial activity) in data set [3] (strain EFA 14-5) came to 128 µg/mL (≈ 303 µM); in data set [4] (strain ECO+ 14-1) it was 1 µg/mL (≈ 2.37 µM); in data set [4] (strain ECO+ 14-2) it was 64 µg/mL (≈ 151 µM); in data set [4] (strain ECO− 14-1), 128 µg/mL (≈ 303 µM); in data set [4] (strain ECO− 14-2), 64 µg/mL (≈ 151 µM); in data set [5] (strain MRSA 14-1), 0.25 µg/mL (≈ 0.592 µM). Also, the MIC (anti-bacterial activity) in data set [5] (strain MRSA 14-2) was determined as 0.25 µg/mL (≈ 0.592 µM); in data set [5] (strain MRSA 14-4) it was 0.125 µg/mL (≈ 0.296 µM); in data set [5] (strain MRSA 14-5), 0.125 µg/mL (≈ 0.296 µM); in data set [5] (setting [9]), 0.03 µg/mL (≈ 0.071 µM); in data set [6] (strain MSSE 14-1) it was 0.03 µg/mL (≈ 0.071 µM); in data set [6] (strain MSSE 14-2), 0.125 µg/mL (≈ 0.296 µM). For the same molecule, the MIC (anti-bacterial activity) in data set [6] (strain MSSE 14-3) worked out at 0.03 µg/mL (≈ 0.071 µM); in data set [6] (strain MSSE 14-4) it was 0.03 µg/mL (≈ 0.071 µM); in data set [7] (strain MSSA 14-1), 0.125 µg/mL (≈ 0.296 µM); in data set [7] (strain MSSA 14-2) it was 0.125 µg/mL (≈ 0.296 µM); in data set [7] (strain MSSA 14-3), 0.125 µg/mL (≈ 0.296 µM); in data set [7] (strain MSSA 14-4), 0.125 µg/mL (≈ 0.296 µM). The MIC in data set [5] (Staphylococcus aureus, MRSA, range over strains, read-out: minimum inhibitory concentration MIC against methicillin-resistant Staphylococcus (MRSA)) lay in the range of 0.125 to 0.25 µg/mL (≈ 0.296 to 0.592 µM). Besides, the inhibition at 30 µM in data set [8] (concentration of 30 μM, 72 hours, CCK-8) was found to be 2%.

`CCCC[C@H](CN(O)C=O)C(=O)N1CC2(CC2)C[C@H]1C(=O)Nc1cccc(-c2cccnc2)c1` [Example 7, (S)-5-((R)-2-((N-hydroxyformamido)methyl)hexylcarbonyl)-N-(3-(pyridin-3-yl)phenyl)-5-5-azaspiro[2.4]heptane-6-amide]: in data set [1], the “MetHb % (n = 3)” value was 2.24 ± 0.05%; the “probability of methemoglobin formation in blood compared with the control drugs LBM415 and GSK1322322” value was “lower probability of methemoglobin formation in blood”. The inhibition at 30 µM in data set [8] was 23%.

For `CCCC[C@H](CN(O)C=O)C(=O)N1CC2(CC2)C[C@H]1C(=O)Nc1cccc(Nc2ncccn2)c1` [Example 8], in data set [1], the “MetHb % (n = 3)” value worked out at 4.12 ± 0.07%. For the same molecule, the “probability of methemoglobin formation in blood compared with the control drugs LBM415 and GSK1322322” value in data set [1] is “lower probability of methemoglobin formation in blood”. Further, the MIC (anti-bacterial activity) in data set [2] (strain MRSE 14-2) came out at 0.25 µg/mL (≈ 0.52 µM); in data set [2] (strain MRSE 14-3), 0.06 µg/mL (≈ 0.125 µM); in data set [2] (strain MRSE 14-4), 0.25 µg/mL (≈ 0.52 µM); in data set [3] (strain EFA 14-1), 0.5 µg/mL (≈ 1.04 µM); in data set [3] (strain EFA 14-2), 1 µg/mL (≈ 2.08 µM); in data set [3] (strain EFA 14-3), 1 µg/mL (≈ 2.08 µM). For the same molecule, the MIC (anti-bacterial activity) in data set [3] (strain EFA 14-5) worked out at 1 µg/mL (≈ 2.08 µM); in data set [4] (strain ECO+ 14-1), 1 µg/mL (≈ 2.08 µM); in data set [4] (strain ECO+ 14-2) it was 64 µg/mL (≈ 133 µM); in data set [4] (strain ECO− 14-1), 128 µg/mL (≈ 266 µM); in data set [4] (strain ECO− 14-2), 128 µg/mL (≈ 266 µM); in data set [5] (strain MRSA 14-1), 0.25 µg/mL (≈ 0.52 µM). The MIC (anti-bacterial activity) in data set [5] (strain MRSA 14-2) was found to be 0.25 µg/mL (≈ 0.52 µM); in data set [5] (strain MRSA 14-4) it was 0.25 µg/mL (≈ 0.52 µM); in data set [5] (strain MRSA 14-5), 0.125 µg/mL (≈ 0.26 µM); in data set [5] (setting [9]), 0.125 µg/mL (≈ 0.26 µM); in data set [6] (strain MSSE 14-1) it was 0.125 µg/mL (≈ 0.26 µM); in data set [6] (strain MSSE 14-2) it was 0.25 µg/mL (≈ 0.52 µM). For the same molecule, the MIC (anti-bacterial activity) in data set [6] (strain MSSE 14-3) is 0.125 µg/mL (≈ 0.26 µM); in data set [6] (strain MSSE 14-4), 0.25 µg/mL (≈ 0.52 µM); in data set [7] (strain MSSA 14-1), 0.25 µg/mL (≈ 0.52 µM); in data set [7] (strain MSSA 14-2), 0.25 µg/mL (≈ 0.52 µM); in data set [7] (strain MSSA 14-3) it was 0.25 µg/mL (≈ 0.52 µM); in data set [7] (strain MSSA 14-4), 0.125 µg/mL (≈ 0.26 µM). The inhibition at 30 µM in data set [8] worked out at 11%.
